Data published in article PMC3033228 (Clinical colorectal cancer, 2010).
Where two headings read alike, the source gives them in different places. Values belong to the molecule of their own block, whether it stands above or below them.

Assays:
[1] = population pharmacokinetic analysis; cited from earlier work
[2] = human, in vivo
[3] = 5-Fluorouracil plasma pharmacokinetics; format: in vivo, human; conditions: for 5-Fluorouracil Cl: DL 3 (erlotinib 150 mg), individual values (n = 2)
[4] = tested on: patients with advanced colorectal cancer; test: Phase I toxicity assessment; conditions: with FOLFOX4 with or without bevacizumab, oral, advanced CRC
patients = conditions: cited from earlier work
clinical = conditions: human, in vivo; for Cmax: Erlotinib Cmax
CRC = conditions: cited from earlier work

- OSI-420 Cmax ([2]; 50 mg): 60.8 ± 16.1 (3) ng/mL
- OSI-420 Tmax ([2]; 50 mg): 2.00 (1.08–2.00, 3) hour
- OSI-420 Cmax ([2]; 100 mg): 67.8 ± 49.1 (8) ng/mL
- OSI-420 Tmax ([2]; 100 mg): 3.00 (1.03–25.03, 8) hour
- OSI-420 Cmax ([2]; 150 mg): 193.2 ± 92.6 (3) ng/mL
- OSI-420 Tmax ([2]; 150 mg): 9.95 (2.07–24.08, 3) hour
SMILES: C#Cc1cccc(Nc2ncnc3cc(OCCOC)c(OCCO)cc23)c1 [OSI-420]
- OSI-420 exposure as share of erlotinib exposure [1]: approximately 10%

- 5-Fluorouracil Cl ([3]; column Combination): 313.2 L/h
- 5-Fluorouracil Cl ([3]; column Single Agent): 217.4 L/h
- 5-Fluorouracil systemic clearance, effect of co-administration of erlotinib ([3]; P = .97): not markedly affected
SMILES: O=c1[nH]cc(F)c(=O)[nH]1 [5-Fluorouracil]

SMILES: C#Cc1cccc(Nc2ncnc3cc(OCCOC)c(OCCOC)cc23)c1 [erlotinib]
- Maximum tolerated dose (MTD) of erlotinib [4]: 100 mg daily
- Dose level at which grade 3 diarrhea occurred (patients): 200 mg
- Patients experiencing diarrhea (patients; erlotinib 100 mg/day): 25%
- Patients experiencing diarrhea (patients; erlotinib 150 mg/day): 86%
- Tmax (clinical; 50 mg, Erlotinib Tmax): 1.08 h
- Cmax (clinical; 100 mg): 985 ± 576 ng/mL
- Cmax (clinical; 150 mg): 1960 ± 1160 ng/mL
- Response rates (RRs) of monotherapy trials (CRC): negligible

SMILES: COc1cc2ncnc(Nc3ccc(F)c(Cl)c3)c2cc1OCCCN1CCOCC1 [gefitinib]
- Response rates (RRs) of monotherapy trials (CRC): negligible
